Experimental data reported in US9636311B2, “N,N′-di-1 naphthylguanidine HCl (NAGH) and N,N′-di-p-nitrophenylguanidine HCl (NAD) treatment for stroke at delayed timepoints” (University of South Florida, priority 2012, dated 2017).

Test system: rats following MCAO
Test: White matter injury, Luxol Fast Blue staining after MCAO
Format: in vivo, rat
Conditions: 30 days post-stroke
Description: MCAO surgeries were performed as described elsewhere (Vendrame M, Cassady C J, Newcomb J, Butler T, Pennypacker K R, Zigova T, et al. Stroke. 2004; 35:2390-2395). Briefly, rats were anesthetized with isoflurane, and the right common carotid and external carotid arteries were exposed using blunt dissection techniques. The vagus nerve was separated from common carotid artery and the external carotid artery was ligated proximally, and transected near the bifurcation. An embolus 40 mm in length (4.0 siliconized monofilament) was inserted into the external carotid artery and fed distally into the origin of the middle cerebral artery (˜25 mm from insertion) through the internal carotid artery. Blood samples were taken and analyzed using an i-STAT handheld analyzer for hemoglobin, hematocrit, ionized calcium, glucose, sodium, potassium, pH, pCO2, HCO3, TCO2, base excess, pO2, and O2. Cerebral blood flow was recorded using a Laser Doppler Monitor (Moor Instruments) to verify occlusion. Afterwards, the embolus was ligated permanently into the vessel and the neck incision was closed. Animals were treated with Ketoprofen IM (10 mg/kg) for three days post-surgery.
For the NAGH studies, vehicle or NAGH were prepared fresh each day. Daily subcutaneous injections (s.c) were administered beginning about 24 hours after MCAO and continued daily to about 72 hours post-surgery (FIG. 1). Animals received a total of 3 injections. A total of 84 animals were randomly assigned into 2 groups: Rats treated with vehicle (40% DMSO in sterile saline, n=42), or rats treated with 0.86 mg/kg NAGH (n=42).
To evaluate white matter injury, coronal brain sections from each the animals were stained with Luxol Fast Blue (LFB; Sigma-Aldrich). For Luxol Fast Blue (LFB) staining, slides were dehydrated in 95% ethanol and incubated in LFB solution at 56° C. overnight. The following day slides were rinsed in 95% ethanol and distilled water and differentiated in 0.1% lithium carbonate solution for 20 s followed by 70% ethyl alcohol for 30 s, and finally rinsed in distilled water. After complete gray and white matter differentiation, slides were dehydrated and placed under coverslips with DPX. The quantitative analysis for demyelination in LFB staining section was performed as described previously with some modification (Virgili, Espinosa-Parrilla et al. 2011; Yu, Gong et al. 2012). LFB stained area was measured on the randomly selected sections (n=21-23 animals/group) to assess demyelination. The extent of the LFB positive area was quantified using a pixel grayscale approach in ImageJ software (National Institute of Health, USA). […] Once calibrated, the amount of LFB staining was measured as the percentage of hemispheric area using ImageJ software.

Cl.N=C(Nc1cccc2ccccc12)Nc1cccc2ccccc12 [NAGH, N,N′-di-1-Naphthylguanidine hydrochloride]
White matter tracts (LFB) vs DMSO: white matter tracts were more intact
Percent change in LFB staining from contralateral to ipsilateral hemisphere (p<0.05 vs DMSO): −0.73+7.7%
LFB staining, ischemic hemisphere (percentage of hemispheric area) (NAGH 0.86 mg/kg s.c. x3, n=22): 10.32±0.48%
LFB staining, non-ischemic hemisphere (percentage of hemispheric area) (NAGH 0.86 mg/kg s.c. x3, n=22): 9.81±0.38%
